Data set [1] concerns RAW264.7. The experiment in a line: Antiinflammatory activity in mouse RAW264.7 cells assessed as inhibition of LPS-induced nitric oxide production at 50 uM incubated for 15 mins prior to LPS challenge measured after 20 hrs by Griess assay relative to control. The format is functional. A general note: The Griess reaction detects nitrite, a stable product of nitric oxide.
Data set [2] has as its system RAW264.7. The experiment in a line: Antiinflammatory activity in mouse RAW264.7 cells assessed as inhibition of LPS-induced nitric oxide production incubated for 15 mins prior to LPS challenge measured after 20 hrs by Griess assay. The format is functional, cell-based.
Data set [3] is described as follows: (§1) Cytotoxicity against mouse RAW264.7 cells assessed as cell survival after 20 hrs by SRB assay. In kind it is cell-based. As to conditions: RAW264.7 cells, read-out: Survival. (In general: Sulforhodamine B stains cellular protein and so reports cell mass.)
In data set [4] the test system is RAW264.7. The description is as §1. In kind it is cell-based. As to conditions: raw264.7, 20 h.
In data set [5] the test system is RAW264.7. The experiment in a line: Downregulation of iNOS mRNA expression in LPS-stimulated mouse RAW264.7 cells at 16.7 uM incubated for 15 mins prior to LPS stimulation measured after 6 hrs by qRT-PCR analysis (reference value: 503.95 no unit). The format is functional.
In data set [6] the test system is RAW264.7. The experiment in a line: Effect on JNK phosphorylation in LPS-stimulated mouse RAW264.7 cells at 1.9 to 16.7 uM incubated for 15 mins prior to LPS stimulation measured after 15 mins by Western blot analysis. The format is cell-based. In general terms: Immunoblotting shows a protein as a band on a membrane.
The test system of data set [7] is RAW264.7. The experiment in a line: Downregulation of iNOS mRNA expression in LPS-stimulated mouse RAW264.7 cells at 5.6 uM incubated for 15 mins prior to LPS stimulation measured after 6 hrs by qRT-PCR analysis (reference value: 503.95 no unit). The format is functional.
Data set [8] relates to RAW264.7. Briefly: Downregulation of iNOS mRNA expression in LPS-stimulated mouse RAW264.7 cells at 1.9 uM incubated for 15 mins prior to LPS stimulation measured after 6 hrs by qRT-PCR analysis (reference value: 503.95 no unit). In kind it is functional.
Data set [9] concerns RAW264.7. Briefly: Downregulation of iNOS mRNA expression in LPS-stimulated mouse RAW264.7 cells incubated for 15 mins prior to LPS stimulation measured after 6 hrs by qRT-PCR analysis. In kind it is functional, cell-based.
Data set [10] relates to RAW264.7. The experiment in a line: Activation of NF-kappaB in mouse RAW264.7 cells assessed as inhibition of LPS-induced IkappaB degradation at 1.9 to 16.7 uM incubated for 15 mins prior to LPS stimulation measured after 15 mins by Western blot analysis. In kind it is cell-based.
Data set [11] concerns the target T1, MAP kinase p38 (Mus musculus) (UniProt P47811+O08911+Q9WUI1+Q9Z1B7). The experiment in a line: Inhibition of p38 phosphorylation in LPS-stimulated mouse RAW264.7 cells incubated for 15 mins prior to LPS stimulation measured after 15 mins by Western blot analysis. The format is cell-based.
The test system of data set [12] is RAW264.7. The experiment in a line: Downregulation of iNOS mRNA expression in LPS-stimulated mouse RAW264.7 cells at 16.7 uM incubated for 15 mins prior to LPS stimulation measured after 6 hrs by qRT-PCR analysis relative to vehicle-treated control. In kind it is functional.
In data set [13] the test system is RAW264.7. The experiment in a line: Downregulation of iNOS protein expression in LPS-stimulated mouse RAW264.7 cells incubated for 15 mins prior to LPS stimulation measured after 20 hrs by Western blot analysis. In kind it is functional, cell-based.
The target in data set [14] is T1, MAP kinase p38 (Mus musculus). The experiment in a line: Inhibition of p38 phosphorylation in LPS-stimulated mouse RAW264.7 cells at 16.7 uM incubated for 15 mins prior to LPS stimulation measured after 15 mins by Western blot analysis. In kind it is cell-based.
Data set [15] has as its system RAW264.7. The experiment in a line: Effect on ERK phosphorylation in LPS-stimulated mouse RAW264.7 cells at 1.9 to 16.7 uM incubated for 15 mins prior to LPS stimulation measured after 15 mins by Western blot analysis. In kind it is cell-based.

Structures are written as SMILES. The source made the active and inactive calls. The calls are words filed in the database; no cut-off is given here. Where only a bound is given, the exact number is not on record here.

Consider 6 compounds from ChEMBL document CHEMBL2424564, “Vermelhotin, an anti-inflammatory agent, suppresses nitric oxide production in RAW 264.7 cells via p38 inhibition” (J Nat Prod, 2013).

As to `C/C=C(\C)c1cc(O)c(C)c2c1Oc1cc(O)c(Cl)c(C)c1C(=O)O2`, the inhibition at 50 µM with RAW264.7 [1] is not below 80%. Moreover, the IC50 in the data set on RAW264.7 [2] amounted to 36.1 µM. Also, the viability at 20 h in data set [3] was more than 80%.
For the compound `C/C=C(\C)c1c(Br)c(O)c(C)c2c1Oc1cc(O)c(Br)c(C)c1C(=O)O2`, the inhibition at 50 µM with RAW264.7 [1] is not below 80%. Besides, in the data set with RAW264.7 [2], the IC50 is 23.7 µM. In the data set on RAW264.7 [4], the Activity result is reported as “Toxic”.
For `CC[C@@H](C)C[C@]1(C)C=C/C(=C2/C(=O)O[C@H](CC(=O)OC)C2=O)O1`, in that order: not below 80%, 6.82 µM and “Toxic”.
Turning to `Cc1cc(O)c2c(c1O)C(=O)c1cc(O)cc(O)c1C2=O` [CATENARIN], the inhibition at 50 µM in the data set with RAW264.7 [1] was not below 80%. Also, the concentration for half-maximal inhibition (IC50) in the data set on RAW264.7 [2] stood at 41.3 µM. Further, the viability at 20 h in [3] was more than 80%.
On to `CNC(=N)NCCC[C@H](N)C(=O)O` [TILARGININE], for which, in the data set with RAW264.7 [2], the 50% inhibitory concentration (IC50) was determined as 21.7 µM.
With `C/C=C/C1=CC=C/C(=C2\C(=O)CNC2=O)O1` [VERMELHOTIN], the “fold change (FC)” value in the data set with RAW264.7 [5] was found to be 13.72; in the data set on RAW264.7 [7], 144.02; in the data set with RAW264.7 [8], 203.39. In the data set on RAW264.7 [1], the inhibition at 50 µM was not below 80%. The outcome in the data set with RAW264.7 [6] and in the data set with RAW264.7 [15] was inactive. The IC50 in the data set on RAW264.7 [2] came to 5.35 µM. The viability at 20 h in data set [3] was more than 80%. Moreover, the inhibition entry (with RAW264.7 [9]; in [11]; in the data set on RAW264.7 [13]) was “Dose-dependent effect” each time. Also, the outcome in the data set with RAW264.7 [10] was Active. This compound also had an inhibition at 16.7 µM in the data set with RAW264.7 [12] of more than 95%. The inhibition entry in data set [14] is “Active”.

One may read the inhibition as the drop in the measured response relative to a control, in per cent. One may read the IC50 as the concentration that gives 50% inhibition.
